Values of other authors as cited in article PMC2650103 (Journal of medicinal chemistry, 2008).

System: cowpox, vaccinia or ectromelia virus
Conditions: mouse, in vivo, po; cited from earlier work

O=C(NN1C(=O)C2C3C=CC(C4CC34)C2C1=O)c1ccc(C(F)(F)F)cc1 (stereo not shown) [Compound 30, 4-trifluoromethyl-N-(3,3a,4,4a,5,5a,6,6a-octahydro-1,3-dioxo-4,6-ethenocycloprop[f]isoindol-2(1H)-yl)-benzamide]
Protection against viral spread in mice: effective in protecting against viral spread
